Results reported in patent US4801697A, “Physiologically active substance TPI and production thereof” (Toyo Jozo Kabushiki Kaisha, priority 1985, dated 1989).
Values after ≈ are worked out from the molar mass of the structure shown.

Assays:
bovine heart PDE = bovine heart PDE inhibitory action (5'-AMP produced from c-AMP measured by HPLC); assay type: biochemical; details: 0.4 mM c-AMP, 30 μg protein PDE, pH 7.5, 30° C., 30 minutes
Procedure: 40 mM Tris-HCl buffer solution (pH 7.5), 2 mM magnesium chloride, 0.4 mM c-AMP, PDE (30 μg protein, Boehringer Mannheim Co.) and TPI are combined to form a reaction mixture (1.0 ml) and the same is incubated at 30° C. for 30 minutes.

mice = experiment: acute toxicity, intraperitoneal injection in mice; assay type: in vivo; details: 100 mg/kg intraperitoneally
Solubility = assay type: physicochemical; details: for Solubility: insoluble: hexane, benzene and petroleum ether; for Solubility: soluble: lower alcohol such as methanol, ethanol and butanol, ethyl acetate, dimethylsulfoxide, aqueous alkali

SMILES	IC50 concentration (bovine heart PDE)	deaths (mice)	Solubility: insoluble (Solubility)	Solubility: soluble (Solubility)	Solubility: soluble (Solubility; chloroform)
COC(=O)C1=C(C)NC(C)=C(C(=O)OCCN(C)Cc2ccccc2)C1c1cccc([N+](=O)[O-])c1 (stereo not shown) [Nicardipine, nicardipine, reference compound]	6.0 µg/mL (≈ 12.5 µM)				
COc1ccc(Cc2nccc3cc(OC)c(OC)cc23)cc1OC [Papaverine, papaverine, reference compound]	25 µg/mL (≈ 73.7 µM)				
CCCCCCCc1cc(OC(=O)c2c(CCCCCCC)cc(O)cc2O[C@@H]2O[C@H](CO)[C@@H](O)[C@H](O)[C@H]2O)cc(O)c1C(=O)O [TPI-1]	2.8 µg/mL (≈ 4.32 µM)	No deaths occurred	Insoluble	Soluble	
CCCCCCCc1cc(OC(=O)c2c(CCCCCCC)cc(O)cc2O[C@@H]2O[C@H](CO)[C@H](O)[C@H](O)[C@H]2O)cc(O)c1C(=O)O [TPI-2]	5.4 µg/mL (≈ 8.32 µM)		Insoluble	Soluble	
CCCCCCCc1cc(OC(=O)c2c(CCCCCCC)cc(O)cc2O[C@@H]2O[C@H](COC(C)=O)[C@@H](O)[C@H](O)[C@H]2O)cc(O)c1C(=O)O [TPI-3]	2.8 µg/mL (≈ 4.05 µM)		Insoluble	Soluble	
CCCCCCCc1cc(OC(=O)c2c(CCCCCCC)cc(O)cc2O[C@@H]2O[C@H](COC(C)=O)[C@H](O)[C@H](O)[C@H]2O)cc(O)c1C(=O)O [TPI-4]	3.5 µg/mL (≈ 5.07 µM)		Insoluble	Soluble	
CCCCCCCc1cc(OC(=O)c2c(O)cc(O)cc2CCCCCCC)cc(O)c1C(=O)O [TPI-5]	2.3 µg/mL (≈ 4.73 µM)		Insoluble		Soluble
Cn1c(=O)c2[nH]cnc2n(C)c1=O [Teophyllin, theophyllin, reference compound]	470 µg/mL (≈ 2610 µM)				
